In patent US10774064B2 (Cadent Therapeutics, Inc., priority 2016, dated 2020):

target: T1, small-conductance Ca2+-activated K+ channels (SK channels, subtype 2) (Homo sapiens, UniProt Q9H2S1); assay: whole-cell patch-clamp of ionic current through SK2 channels in HEK293 cells (SC100); type: cell-based; conditions: whole-cell patch-clamp, HEK293 cells expressing SK2 channels; concentration that increases the basal current by 100%
T1 construct: expressed in transfected cells; host or cells: HEK293
Summary of the method: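 SC100, the concentration doubling basal current (a 100% increase), was taken from SK2 currents recorded by whole-cell patch-clamp in SK2-expressing HEK293 cells.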

| Structure (SMILES) | SC100 (μM) |
| --- | --- |
| CN(C)C1CN(c2cc(Nc3ccc(F)cc3)nc(-n3ccc(CF)n3)c2)C1 [NSSy5713] | + (+ means >1 uM) |
| FCc1csc(-c2nc(NC3CCC(F)(F)CC3)cc(N3CC4(COC4)C3)n2)n1 [NSSy5715, N-(4,4-difluorocyclohexyl)-2-(4-(fluoromethyl)thiazol-2-yl)-6-(2-oxa-6-azaspiro[3.3]heptan-6-yl)pyrimidin-4-amine] | ++ (++ means 200 nM-1000 nM) |
| Cc1csc(-c2cc(OCc3cnnn3C)cc(NC3CCC(F)(F)CC3)n2)n1 [NSSy5717] | +++ (+++ means <200 nM) |
| Cc1ccn(-c2cc(N3CC(C)(O)C3)cc(NC3CCC(F)(F)CC3)n2)n1 [NSSy5721] | ++ (++ means 200 nM-1000 nM) |
| CCC(=O)N1CC(Oc2cc(NC3CCC(F)(F)CC3)nc(-c3nc(C)cs3)n2)C1 [NSSy5726] | ++ (++ means 200 nM-1000 nM) |
| COC(=O)N(C)C1CC(Oc2cc(NC3CCC(F)(F)CC3)nc(-c3nc(C)cs3)n2)C1 (stereo not shown) [NSSy5730] | ++ (++ means 200 nM-1000 nM) |
| Cc1ccn(-c2cc(OCc3ncnn3C)cc(NC3CCC(F)(F)CC3)n2)n1 [NSSy5737] | ++ (++ means 200 nM-1000 nM) |
| Cc1csc(-c2nc(NC3CCC(F)(F)CC3)cc(OC3CC(C)(O)C3)n2)n1 (stereo not shown) [NSSy5740] | ++ (++ means 200 nM-1000 nM) |
| COC(=O)N1CC(Oc2cc(NC3CCC(F)CC3)nc(-n3ccc(C)n3)n2)C1 (stereo not shown) [NSSy5741] | + (+ means >1 uM) |
| Cc1ccn(-c2cc(N3CCOCC3)cc(NC3CC=CCC3)n2)n1 (stereo not shown) [NSSy5759, N-(cyclohex-3-en-1-yl)-6-(3-methyl-1H-pyrazol-1-yl)-4-morpholino pyridin-2-amine] | ++ (++ means 200 nM-1000 nM) |
| Cc1ccn(-c2nc(NC3CC=CCC3)cc(OC3CN(C(=O)C(C)C)C3)n2)n1 (stereo not shown) [NSSy5762] | ++ (++ means 200 nM-1000 nM) |
| Cc1ccn(-c2cc(N3CC(N(C)C)C3)cc(NC3CCC(F)(F)CC3)n2)n1 [NSSy5763] | ++ (++ means 200 nM-1000 nM) |
| Cc1ccn(-c2nc(NC3CCC(F)CC3)cc(OC3CN(C(=O)C(C)C)C3)n2)n1 (stereo not shown) [NSSy5765] | ++ (++ means 200 nM-1000 nM) |
| Cc1csc(-c2nc(NC3CCC(F)(F)CC3)cc(N3CCN4C(=O)OCC4C3)n2)n1 (stereo not shown) [NSSy5774] | ++ (++ means 200 nM-1000 nM) |
| COCC1CN(c2cc(NC3CCC(F)(F)CC3)nc(-c3nc(C)cs3)c2)CCO1 (stereo not shown) [NSSy5807] | +++ (+++ means <200 nM) |
| Cc1csc(-c2cc(N3CCC(C4COC4)CC3)cc(NC3CCC(F)(F)CC3)n2)n1 [NSSy5815] | ++ (++ means 200 nM-1000 nM) |
| Cc1csc(-c2cc(N3CCN(C4COC4)CC3)cc(NC3CCC(F)(F)CC3)n2)n1 [NSSy5819] | ++ (++ means 200 nM-1000 nM) |
| Cc1csc(-c2cc(N3CCN4C(=O)OCC4C3)cc(NC3CCC(F)(F)CC3)n2)n1 (stereo not shown) [NSSy5824] | +++ (+++ means <200 nM) |
| Cc1csc(-c2cc(N3CCN4C(=O)OC[C@@H]4C3)cc(NC3CCC(F)(F)CC3)n2)n1 [NSSy5837] | +++ (+++ means <200 nM) |
| Cc1csc(-c2cc(N3CCN4C(=O)OC[C@H]4C3)cc(NC3CCC(F)(F)CC3)n2)n1 [NSSy5838] | +++ (+++ means <200 nM) |
| Cc1ccn(-c2nc(NC3CCC(F)(F)CC3)cc(OC3CC(F)(F)C3)n2)n1 [NSSy5893, 6-(3,3-difluorocyclobutoxy)-N-(4,4-difluorocyclohexyl)-2-(3-methyl-1H-pyrazol-1-yl)pyrimidin-4-amine] | ++ (++ means 200 nM-1000 nM) |

Other lines, results leading:

| SC100 (μM) | Structure (SMILES) |
| --- | --- |
| ++ (++ means 200 nM-1000 nM) | COCc1cc(NC2CCC(F)(F)CC2)nc(-c2nc(C)cs2)n1 [NSSy5779, N-(4,4-difluorocyclohexyl)-6-(methoxymethyl)-2-(4-methylthiazol-2-yl)pyrimidin-4-amine] |
| ++ (++ means 200 nM-1000 nM) | COC(=O)N1CC(Oc2cc(NC3CC=CCC3)nc(-n3ccc(C)n3)n2)C1 (stereo not shown) [NSSy5786] |
| ++ (++ means 200 nM-1000 nM) | Cc1csc(-c2nc(NC3CCC(F)(F)CC3)cc(N3CCC(C4COC4)CC3)n2)n1 [NSSy5787] |
| +++ (+++ means <200 nM) | COCC1CN(c2cc(NC3CCC(F)(F)CC3)nc(-c3nc(C)cs3)n2)CCO1 (stereo not shown) [NSSy5789] |
| ++ (++ means 200 nM-1000 nM) | Cc1csc(-c2nc(NC3CCC(F)(F)CC3)cc(N3CCN(C4COC4)CC3)n2)n1 [NSSy5792] |
| ++ (++ means 200 nM-1000 nM) | COC[C@@H]1CN(c2cc(NC3CCC(F)(F)CC3)nc(-c3nc(C)cs3)n2)CCO1 [NSSy5795] |
| +++ (+++ means <200 nM) | COC[C@H]1CN(c2cc(NC3CCC(F)(F)CC3)nc(-c3nc(C)cs3)n2)CCO1 [NSSy5796] |
| ++ (++ means 200 nM-1000 nM) | Cc1cc(C)n(-c2cc3c(ncn3C3COC3)c(NC3CCC(F)(F)CC3)n2)n1 [NSSy5808, N-(4,4-difluorocyclohexyl)-6-(3,5-dimethyl-1H-pyrazol-1-yl)-1-(oxetan-3-yl)-1H-imidazo[4,5-c]pyridin-4-amine] |
| + (+ means >1 uM) | COCc1cc(NC2CCC(F)(F)CC2)nc(-c2nc(C)co2)n1 [NSSy5818, N-(4,4-difluorocyclohexyl)-6-(methoxymethyl)-2-(4-methyloxazol-2-yl)pyrimidin-4-amine] |
| ++ (++ means 200 nM-1000 nM) | Cc1ccn(-c2cc(C#N)cc(NC3CCC(F)(F)CC3)n2)n1 [NSSy5826] |
| ++ (++ means 200 nM-1000 nM) | Cc1ccn(-c2cc(CO)cc(NC3CCC(F)(F)CC3)n2)n1 [NSSy5827] |
| +++ (+++ means <200 nM) | Cc1ccc(OCc2cc(NC3CCC(F)(F)CC3)nc(-n3ccc(C)n3)c2)nn1 [NSSy5828, N-(4,4-difluorocyclohexyl)-6-(3-methyl-1H-pyrazol-1-yl)-4-(((6-methylpyridazin-3-yl)oxy)methyl)pyridin-2-amine] |
| ++ (++ means 200 nM-1000 nM) | Cc1ccn(-c2cc(CF)cc(NC3CCC(F)(F)CC3)n2)n1 [NSSy5829, N-(4,4-difluorocyclohexyl)-4-(fluoromethyl)-6-(3-methyl-1H-pyrazol-1-yl)pyridin-2-amine] |
| + (+ means >1 uM) | C/C(=N\O)Nc1cc(NC2CCC(F)(F)CC2)nc(-c2nc(C)no2)n1 [NSSy5830, (E)-N-(6-((4,4-difluorocyclohexyl)amino)-2-(3-methyl-1,2,4-oxadiazol-5-yl)pyrimidin-4-yl)-N′-hydroxyacetimidamide] |
| + (+ means >1 uM) | Cc1nsc(-c2nc(NC3CCC(F)(F)CC3)cc(N3CCOCC3)n2)n1 [NSSy5832] |
| + (+ means >1 uM) | Cc1noc(-c2nc(NC3CCC(F)(F)CC3)cc(N3CCOCC3)n2)n1 [NSSy5835, N-(4,4-difluorocyclohexyl)-2-(3-methyl-1,2,4-oxadiazol-5-yl)-6-morpholinopyrimidin-4-amine] |

| SC100 (μM) | Structure (SMILES) |
| --- | --- |
| ++ (++ means 200 nM-1000 nM) | Cc1ccn(-c2cc(C(F)F)cc(NC3CCC(F)(F)CC3)n2)n1 [NSSy5839, N-(4,4-difluorocyclohexyl)-4-(difluoromethyl)-6-(3-methyl-1H-pyrazol-1-yl)pyridin-2-amine] |
| ++ (++ means 200 nM-1000 nM) | Cc1ccn(-c2cc(C(C)(C)O)cc(NC3CCC(F)(F)CC3)n2)n1 [NSSy5846] |
| + (+ means >1 uM) | N#Cc1ccn(-c2nc(NC3CCC(F)(F)CC3)cc(N3CC4(COC4)C3)n2)n1 [NSSy5847] |
| + (+ means >1 uM) | N#CCc1ccn(-c2nc(NC3CCC(F)(F)CC3)cc(N3CC4(COC4)C3)n2)n1 [NSSy5848] |
| ++ (++ means 200 nM-1000 nM) | COC(=O)N1CC(Oc2cc(NC3CC=C(C)CC3)nc(-c3nc(C)cs3)n2)C1 (stereo not shown) [NSSy5854, methyl 3-((6-((4-methylcyclohex-3-en-1-yl)amino)-2-(4-methylthiazol-2-yl)pyrimidin-4-yl)oxy)azetidine-1-carboxylate] |
| ++ (++ means 200 nM-1000 nM) | COC(=O)N1CC(Oc2cc(NC3CCC(F)(F)CC3)nc(-c3nc(C)ns3)n2)C1 [NSSy5857] |
| ++ (++ means 200 nM-1000 nM) | COCc1cc(NC2CCC(F)(F)CC2)nc(-n2ccc(C)n2)c1 [NSSy5860] |
| ++ (++ means 200 nM-1000 nM) | Cc1ccn(-c2cc(COc3ncc(F)cn3)cc(NC3CCC(F)(F)CC3)n2)n1 [NSSy5861] |
| +++ (+++ means <200 nM) | COC(=O)N1CC(Oc2nc(-c3nc(C)cs3)nc(NC3CCC(F)(F)CC3)c2Br)C1 [NSSy5868, methyl 3-((5-bromo-6-((4,4-difluorocyclohexyl)amino)-2-(4-methylthiazol-2-yl)pyrimidin-4-yl)oxy)azetidine-1-carboxylate] |
| ++ (++ means 200 nM-1000 nM) | Cc1ccn(-c2nc(NC3CCC(F)(F)CC3)cc(OC3CC(O)C3)n2)n1 (stereo not shown) [NSSy5879, 3-((6-((4,4-difluorocyclohexyl)amino)-2-(3-methyl-1H-pyrazol-1-yl)pyrimidin-4-yl)oxy)cyclobutan-1-ol] |
| + (+ means >1 uM) | COC(=O)N1CC(Oc2cc(NC3CCC(F)(F)CC3)nc(-c3nc(C)no3)n2)C1 [NSSy5887, methyl 3-((6-((4,4-difluorocyclohexyl)amino)-2-(3-methyl-1,2,4-oxadiazol-5-yl)pyrimidin-4-yl)oxy)azetidine-1-carboxylate] |
| ++ (++ means 200 nM-1000 nM) | Cc1ccn(-c2nc(NC3CCC(F)(F)CC3)cc(OC3CC(C)(O)C3)n2)n1 (stereo not shown) [NSSy5902, 3-((6-((4,4-difluorocyclohexyl)amino)-2-(3-methyl-1H-pyrazol-1-yl)pyrimidin-4-yl)oxy)-1-methylcyclobutan-1-ol] |
| ++ (++ means 200 nM-1000 nM) | COCc1cc(NC2CCC(F)(F)CC2)nc(-c2nc(C)cs2)c1 [NSSy5933, N-(4,4-difluorocyclohexyl)-4-(methoxymethyl)-6-(4-methylthiazol-2-yl)pyridin-2-amine] |
| + (+ means >1 uM) | COC(=O)N1CC(Oc2cc(NC3CCC(F)(F)CC3)cc(-n3ccc(C)n3)c2)C1 [NSSy5934, methyl 3-(3-((4,4-difluorocyclohexyl)amino)-5-(3-methyl-1H-pyrazol-1-yl)phenoxy)azetidine-1-carboxylate] |
| + (+ means >1 uM) | Cc1noc(-c2cc(N3CCOCC3)cc(NC3CCC(F)(F)CC3)n2)n1 [NSSy5957] |
